Assay results reported in paper PMC3486515 (Investigational new drugs, 2010).
“And” between values parts separate entries of the source, which are not always exact repeats. Equal entries are not always repeated. “Also recorded” adds a separate entry of the source.

Key:
advanced solid tumors = test: Objective response by RECIST; format: in vivo, human
[1] = test system: patients with advanced solid tumors; conditions: human, in vivo
[2] = test system: refractory chronic lymphocytic leukemia (CLL); conditions: cited from earlier work
refractory solid tumors = conditions: 72-hr infusion schedule; cited from earlier work
IL-6 = test: Serum cytokine levels by cytokine bead array and ELISA; conditions: prior to and after flavopiridol infusion
[3] = Plasma pharmacokinetics, LC/MS/MS, non-compartmental analysis
[4] = Flavopiridol protein binding in patient PK samples by micro-equilibrium dialysis; conditions: for concentration at 4 h: human, plasma, intravenous, Mean free flavopiridol plasma concentration at the end of the 4-hour infusion
[5] = test system: patients with advanced solid tumors
[6] = All dose levels, 34 pts, first dose, mean ± SD
[7] = dose level 1, 1B (30+30 mg/m^2 bolus+infusion), 6 pts, first dose, mean ± SD
[8] = dose level 2, 2B (30+45 mg/m^2 bolus+infusion), 9 pts, first dose, mean ± SD
[9] = dose level 3 (30+60 mg/m^2 bolus+infusion), 9 pts, first dose, mean ± SD
[10] = dose level 4 (30+75 mg/m^2 bolus+infusion), 2 pts, first dose, mean ± SD
[11] = dose level −1, −1B (20+20 mg/m^2 bolus+infusion), 8 pts, first dose, mean ± SD

In the case of `CN1CC[C@H](c2c(O)cc(O)c3c(=O)cc(-c4ccccc4Cl)oc23)[C@H](O)C1` [flavopiridol], the “Patients off study for progressive disease (PD)” value (advanced solid tumors; 34 patients) is reported as 18 patients, the “Antitumor (objective) responses” value (advanced solid tumors; 34 patients with advanced solid tumors, RECIST) is reported as “No antitumor responses were observed; also recorded: No objective responses were observed” and the “Patients with PD” value (advanced solid tumors; after completing two cycles) is reported as “seventeen”. For the same compound, the “Adverse event: Deep venous Thrombosis” value [1] was 1, the “Adverse event: Diaphories” value [1] was 8 (24) N (%) and the “Adverse event: Dizziness” value [1] was 6 (35) N (%). The “Adverse event: Dysphagia” value [1] was 1, the “Adverse event: Dyspnea” value [1] was 5 and the “Adverse event: Elevated Alk Phos” value [1] was 2. For the same compound, the “Adverse event: Febrile neutropenia” value [1] was 1, the “Adverse event: Fever” value [1] was 4 (12) N (%) and the “Adverse event: Hyperbilrubinemia” value [1] was 4 (12) N (%). For the same compound, the “Adverse event: Hypercalcemia” value [1] was 1, the “Adverse event: Hypoxemia” value [1] was 2 and the “Adverse event: Nausea and/or vomiting” value [1] was 20 (59) N (%). For the same compound, the “Adverse event: Somonolence” value [1] was 4 (12) N (%), the “Adverse event: Tumor lysis syndrome” value [1] was 1 and the “Patients off study for grade 3 AEs” value [1] was 6 patients. The “Patients off study for grade 3 AST/ALT” value [1] was 2 n, the “Patients off study for grade 3 CKRS” value [1] was 4 n and the “Patients with CKRS” value [1] was 41%. For the same compound, the “Time to resolution of CKRS symptoms” value [1] was no more than 6 h, the Partial response rate ([2]; PK-directed schedule, single agent, CLL) was 40% and the Response rate ([2]; phase II study, refractory CLL patients) was “approximately 50%”. For the same compound, the “MTD (bolus+infusion)” value ([2]; refractory CLL patients) was 30+50 mg/m^2, the “Maximum-tolerated dose (MTD), infusion” value ([2]; refractory CLL, 4-hr infusion) was 50 mg/m^2 and the “Maximum-tolerated dose (MTD), bolus” value ([2]; refractory CLL, 30-minute loading dose) was 30 mg/m^2. For the same compound, the “Major dose-limiting toxicity (DLT)” value (refractory solid tumors) was “Secretory diarrhea”, the IL-6 serum levels (IL-6) was “associated with flavopiridol infusion” and the “Other serum cytokines (IL-2, IL-4, IL-10, TNF-α, IFNγ)” value (IL-6) was “No other cytokines were associated with flavopiridol infusion”. The “Mean end-of-infusion concentration (C0.5)” value ([3]; 20 mg/m^2 bolus dose) was 910 ± 260 µM, the “Mean end-of-infusion concentration (C0.5)” value ([3]; 30 mg/m^2 bolus dose) was 1420 ± 660 µM and the “Dose proportionality of plasma concentrations (Cmax) and AUC” value ([3]; 5 doses from 40 to 105 mg/m^2) was “increased proportionally with dose; also recorded: proportional increases in Cmax and AUC”. The “AUCO-∞” value [3, 6] was 13.6 ± 7.0 hr x µM, the CL [3, 6] was 12.7 ± 6.3 L/hr/m^2 and the “V2 (volume of distribution)” value [3, 6] was 241 ± 149 L/m^2. The “AUCO-∞” value [3, 7] was 13.2 ± 3.4 hr x µM, the CL [3, 7] was 11.9 ± 3.0 L/hr/m^2 and the “V2 (volume of distribution)” value [3, 7] was 198 ± 82 L/m^2. For the same compound, the “AUCO-∞” value [3, 8] was 14.3 ± 6.8 hr x µM, the CL [3, 8] was 15.3 ± 5.8 L/hr/m^2 and the Cmax [3, 8] was 1.79 ± 0.83 µM. The “V2 (volume of distribution)” value [3, 8] was 307 ± 155 L/m^2, the “AUCO-∞” value [3, 9] was 16.6 ± 8.6 hr x µM and the CL [3, 9] was 16.5 ± 7.0 L/hr/m^2. For the same compound, the “V2 (volume of distribution)” value [3, 9] was 309 ± 168 L/m^2, the “AUCO-∞” value [3, 10] was 20.8 hr x µM and 20.8 ± 5.6 hr x µM and the CL [3, 10] was 13.1 ± 3.6 L/hr/m^2. For the same compound, the Cmax [3, 10] was 2.71 ± 1.08 µM, the “V2 (volume of distribution)” value [3, 10] was 260 ± 28 L/m^2 and the “AUCO-∞” value [3, 11] was 7.9 hr x µM and 7.9 ± 4.2 hr x µM. For the same compound, the CL [3, 11] was 6.1 ± 2.5 L/hr/m^2, the “V2 (volume of distribution)” value [3, 11] was 117 ± 99 L/m^2 and the AUC(0-inf) ([3]; human, plasma, intravenous, AUC0–∞, overall mean, all doses (40–105 mg/m^2), 34 patients) was 13.6 ± 7 µM·h. The half-life ([3]; human, plasma, intravenous, T1/2, All dose levels, 34 pts, first dose, mean ± SD) was 14.2 ± 8.4 h, the Tmax ([3]; human, plasma, intravenous, Tmax, All dose levels, 34 pts, first dose, mean ± SD) was 2.02 ± 1.87 h and the concentration at 4 h ([4]; patients who did not experience CKRS (N=20), cycle 1) was 0.02 ± 0.009 µM. For the same compound, the concentration at 4 h ([4]; patients with grade 1 or higher CKRS during cycle 1) was 0.035 ± 0.026 µM, the “Mean free flavopiridol AUC” value ([4]; patients with CKRS during cycle 1) was 0.318 ± 0.22 µM·h and the “Mean free flavopiridol AUC” value ([4]; patients without observed CKRS during cycle 1) was 0.215 ± 0.103 µM·h. For the same compound, the “Maximum-tolerated dose, bolus” value ([5]; 30-min bolus, weekly for 4 weeks on a 6-week cycle, patients with advanced solid tumors, dose level −1B) was 20 mg/m^2, the “Maximum-tolerated dose, infusion” value ([5]; infusion over 4 hours after bolus, weekly for 4 weeks on a 6-week cycle, patients with advanced solid tumors, dose level −1B) was 20 mg/m^2 and the “Deaths attributed to CKRS” value ([5]; on study) was “One death on the study was attributed to CKRS”. The “MTD (bolus+infusion)” value ([5]; patients with advanced solid tumors) was 20+20 mg/m^2.

For `C[C@@H]1C[C@H]2[C@@H]3CCC4=CC(=O)C=C[C@]4(C)[C@@]3(F)[C@@H](O)C[C@]2(C)[C@@]1(O)C(=O)CO` [dexamethasone], the “Effect on frequency/incidence of CKRS” value ([5]; prophylactic dexamethasone 20 mg prior to bolus dose of flavopiridol) was “did not impact the frequency of CKRS; also recorded: did not impact the incidence of CKRS; also recorded: not associated with decreased occurrence of CKRS”.
